Experimental data as given in PubChem BioAssay AID330 (DTP/NCI, 2004).
Values joined by “and” are separate entries in the source; they are usually repeats but may differ in a detail not shown here. Identical values can stand only once. Toxic doses and inconclusive results are not listed. The calls were made as follows: active = survival T/C of 150% or more; inactive = T/C below 125% in these data. Peptide text beside a SMILES is read from it.

Tested on: P388 leukemia ip, CD2F1 mice, survival T/C
Assay: NCI In Vivo Anticancer Drug Screen. Data for tumor model P388 Leukemia (intraperitoneal) in CD2F1 (CDF1) mice
Settings: endpoint: median survival time, higher = longer survival
How it was run: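 Mice carrying the transplanted tumor received test compound or vehicle. Survival was recorded in each group, and the value is the treated-group measurement divided by that of the vehicle-treated control group.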

[1] = dose: 100.0 mg/kg/injection, schedule: Q04DX003 (ip), vehicle: Klucel (hydroxypropylcellulose) (HPC)
[2] = dose: 50.0 mg/kg/injection, schedule: Q01DX009 (ip), vehicle: Klucel (hydroxypropylcellulose) (HPC)
[3] = dose: 100.0 mg/kg/injection, schedule: Q01DX009 (ip), vehicle: Klucel (hydroxypropylcellulose) (HPC)
[4] = dose: 200.0 mg/kg/injection, schedule: Q01DX009 (ip), vehicle: Klucel (hydroxypropylcellulose) (HPC)
[5] = dose: 60.0 mg/kg/injection, schedule: Q01DX005 (ip), vehicle: saline with Tween-80
[6] = dose: 15.0 mg/kg/injection, schedule: Q01DX005 (ip), vehicle: saline with Tween-80
[7] = dose: 30.0 mg/kg/injection, schedule: Q01DX005 (ip), vehicle: saline with Tween-80
[8] = dose: 120.0 mg/kg/injection, schedule: Q01DX005 (ip), vehicle: saline with Tween-80
[9] = dose: 50.0 mg/kg/injection, schedule: Q01DX005 (ip), vehicle: saline with Tween-80
[10] = dose: 50.0 mg/kg/injection, schedule: Q01DX009 (ip), vehicle: saline with Tween-80
[11] = dose: 100.0 mg/kg/injection, schedule: Q01DX009 (ip), vehicle: saline with Tween-80
[12] = dose: 200.0 mg/kg/injection, schedule: Q01DX009 (ip), vehicle: saline with Tween-80
[13] = dose: 100.0 mg/kg/injection, schedule: Q01DX001 (ip), vehicle: saline with Tween-80
[14] = dose: 200.0 mg/kg/injection, schedule: Q01DX001 (ip), vehicle: saline with Tween-80
[15] = dose: 400.0 mg/kg/injection, schedule: Q01DX001 (ip), vehicle: saline with Tween-80
[16] = dose: 100.0 mg/kg/injection, schedule: Q01DX001 (ip), vehicle: Klucel (hydroxypropylcellulose) (HPC)
[17] = dose: 200.0 mg/kg/injection, schedule: Q01DX001 (ip), vehicle: Klucel (hydroxypropylcellulose) (HPC)
[18] = dose: 400.0 mg/kg/injection, schedule: Q01DX001 (ip), vehicle: Klucel (hydroxypropylcellulose) (HPC)

Measured: T/C

NC(=S)N/N=C/c1cn(-c2ccc([N+](=O)[O-])cc2)cn1
inactive: dose: 25.0 mg/kg/injection, schedule: Q04DX003 (ip), vehicle: Klucel (hydroxypropylcellulose) (HPC) 86 % of control | dose: 50.0 mg/kg/injection, schedule: Q04DX003 (ip), vehicle: Klucel (hydroxypropylcellulose) (HPC) 86 % of control | [1] 94 % of control

COc1cc2c(c(OC)c1OC)CCCC2=O
inactive: [2] 111 % of control | [3] 113 % of control | [4] 117 % of control

Cc1ccc(C)c(OP2(=O)NC3CCCCC3N2)c1 (stereo not given)
inactive: dose: 100.0 mg/kg/injection, schedule: Q04DX002 (ip), vehicle: Klucel (hydroxypropylcellulose) (HPC) 91 % of control | dose: 200.0 mg/kg/injection, schedule: Q04DX002 (ip), vehicle: Klucel (hydroxypropylcellulose) (HPC) 89 % of control

O=C1CNC(=O)N1CCO
inactive: dose: 12.5 mg/kg/injection, schedule: Q04DX003 (ip), vehicle: saline 99 % of control | dose: 25.0 mg/kg/injection, schedule: Q04DX003 (ip), vehicle: saline 106 % of control | dose: 50.0 mg/kg/injection, schedule: Q04DX003 (ip), vehicle: saline 98 % of control | dose: 100.0 mg/kg/injection, schedule: Q04DX003 (ip), vehicle: saline 99 % of control | dose: 200.0 mg/kg/injection, schedule: Q04DX003 (ip), vehicle: saline 104 % of control | dose: 400.0 mg/kg/injection, schedule: Q04DX003 (ip), vehicle: saline 104 % of control

CN(C)/N=C1/CCCCC1C(O)(c1ccccc1)c1ccccc1 (stereo not given)
inactive: [5] 97 % of control

Clc1ccccc1-c1nnc(-c2cccc(-c3nnc(-c4ccccc4Cl)o3)n2)o1
inactive: dose: 7.5 mg/kg/injection, schedule: Q01DX005 (ip), vehicle: saline with Tween-80 89 % of control | [6] 91 % of control | [7] 89 % of control | [5] 101 % of control | [8] 97 % of control | dose: 240.0 mg/kg/injection, schedule: Q01DX005 (ip), vehicle: saline with Tween-80 104 % of control

Cn1nnnc1/C=C/c1ccccc1
inactive: [1] 106 % of control | dose: 200.0 mg/kg/injection, schedule: Q04DX003 (ip), vehicle: Klucel (hydroxypropylcellulose) (HPC) 104 % of control | dose: 400.0 mg/kg/injection, schedule: Q04DX003 (ip), vehicle: Klucel (hydroxypropylcellulose) (HPC) 105 % of control

N#CCc1ccc(N(CCO)CCO)cc1
inactive: dose: 12.5 mg/kg/injection, schedule: Q01DX005 (ip), vehicle: saline with Tween-80 102 % of control | dose: 25.0 mg/kg/injection, schedule: Q01DX005 (ip), vehicle: saline with Tween-80 101 % of control | [9] 101 % of control and 104 % of control

Cc1oc(NC(=O)C(=O)O)c(C#N)c1C
inactive: [10] 88 % of control | [11] 102 % of control | [12] 88 % of control

Cc1ccc(C(=O)[Se][Se]C(=O)c2ccc(C)cc2)cc1
inactive: dose: 6.25 mg/kg/injection, schedule: Q01DX009 (ip), vehicle: saline with Tween-80 98 % of control | dose: 12.5 mg/kg/injection, schedule: Q01DX009 (ip), vehicle: saline with Tween-80 117 % of control | dose: 25.0 mg/kg/injection, schedule: Q01DX009 (ip), vehicle: saline with Tween-80 104 % of control and 112 % of control

Nc1nc(N)c2nc(CNc3ccc(Cl)c(Cl)c3)cnc2n1
inactive: [6] 98 % of control | [7] 89 % of control

O=C(Oc1ccc[nH]c1=O)c1ccc([N+](=O)[O-])cc1
inactive: dose: 12.5 mg/kg/injection, schedule: Q01DX009 (ip), vehicle: saline 106 % of control and 110 % of control | dose: 25.0 mg/kg/injection, schedule: Q01DX009 (ip), vehicle: saline 101 % of control and 110 % of control | dose: 50.0 mg/kg/injection, schedule: Q01DX009 (ip), vehicle: saline 102 % of control and 103 % of control and 118 % of control | dose: 100.0 mg/kg/injection, schedule: Q01DX009 (ip), vehicle: saline 105 % of control and 118 % of control | dose: 200.0 mg/kg/injection, schedule: Q01DX009 (ip), vehicle: saline 100 % of control and 110 % of control and 91 % of control | dose: 400.0 mg/kg/injection, schedule: Q01DX009 (ip), vehicle: saline 101 % of control and 110 % of control

O=[N+]([O-])c1ccc2nc(CC(O)(C(F)(F)F)C(F)(F)F)ccc2c1
inactive: [11] 115 % of control | [12] 90 % of control | dose: 400.0 mg/kg/injection, schedule: Q01DX009 (ip), vehicle: saline with Tween-80 95 % of control

Cc1ccccc1C1N(Cc2ccccc2)C(=S)C1(C(C)C)C(C)(C)C (stereo not given)
inactive: [13] 102 % of control | [14] 92 % of control | [15] 94 % of control

CCOC(=O)c1ccc(NC(=O)Nc2nncs2)cc1
inactive: dose: 6.25 mg/kg/injection, schedule: Q01DX009 (ip), vehicle: distilled water + Tween-80 114 % of control | dose: 12.5 mg/kg/injection, schedule: Q01DX009 (ip), vehicle: distilled water + Tween-80 119 % of control

O=C(N=Nc1ccccc1)NC1CCCCC1
inactive: [9] 100 % of control | dose: 100.0 mg/kg/injection, schedule: Q01DX005 (ip), vehicle: saline with Tween-80 101 % of control | dose: 200.0 mg/kg/injection, schedule: Q01DX005 (ip), vehicle: saline with Tween-80 100 % of control

O=Cc1c(-c2ccc(Cl)cc2)nc2sccn12
inactive: [16] 93 % of control | [17] 96 % of control | [18] 93 % of control

O=C(N/N=C/c1cc(Br)cc(Br)c1[O-])c1ccccc1.O=C(N/N=C/c1cc(Br)cc(Br)c1[O-])c1ccccc1.[Mn+2]
inactive: [13] 95 % of control | [14] 101 % of control | [15] 98 % of control

O=c1nc(Oc2ccc([N+](=O)[O-])cc2)nc2ccccn12
inactive: [2] 99 % of control | [3] 87 % of control | [4] 87 % of control

CCCCCCCCCC1c2[nH]c3ccccc3c2C(=O)NN1C(C)=O (stereo not given)
inactive: [16] 98 % of control | [17] 98 % of control | [18] 104 % of control

NC(Cc1cnc[nH]1)C(=O)N1CCCC1C(=O)NC(CCC(=O)O)C(=O)O (stereo not drawn) (H-His-Pro-Glu-OH; configuration not given here)
inactive: dose: 7.5 mg/kg/injection, schedule: Q01DX009 (ip), vehicle: saline 102 % of control | dose: 15.0 mg/kg/injection, schedule: Q01DX009 (ip), vehicle: saline 100 % of control | dose: 30.0 mg/kg/injection, schedule: Q01DX009 (ip), vehicle: saline 109 % of control

CCN(CC)C(=S)C(C)(C)C
inactive: [5] 106 % of control | [8] 106 % of control

Cn1cc(NC(=O)c2cc(NC(=O)c3cc(NC=O)cn3C)cn2C)cc1C(=O)O
inactive: dose: 12.5 mg/kg/injection, schedule: Q01DX005 (ip), vehicle: Klucel (hydroxypropylcellulose) (HPC) 100 % of control | dose: 25.0 mg/kg/injection, schedule: Q01DX005 (ip), vehicle: Klucel (hydroxypropylcellulose) (HPC) 100 % of control | dose: 50.0 mg/kg/injection, schedule: Q01DX005 (ip), vehicle: Klucel (hydroxypropylcellulose) (HPC) 107 % of control

CC1CNCC(C)N1Cc1ccccc1 (stereo not given)
inactive: dose: 50.0 mg/kg/injection, schedule: Q01DX005 (ip), vehicle: saline 108 % of control | dose: 100.0 mg/kg/injection, schedule: Q01DX005 (ip), vehicle: saline 99 % of control

CCCCOC(=O)N(C)SN(C)C(=O)Oc1cccc(C(C)C)c1
inactive: [10] 121 % of control
